Reference: patent US20100298141A1, “SUBSTITUTED PYRIDINE N-OXIDE HERBICIDES” (E. I. DU PONT DE NEMOURS AND COMPANY, priority 2007, published 2010)

Tests used:
quackgrass = experiment: Test F preemergence test; type: in vivo, Elytrigia repens; conditions: scale 0 to 100
Excerpt: (§1) Seeds of plant species selected from bermudagrass (Cynodon dactylon), Surinam grass (Brachiaria decumbens), large crabgrass (Digitaria sanguinalis), green foxtail (Setaria viridis), goosegrass (Eleusine indica), johnsongrass (Sorghum halepense), kochia (Kochia scoparia), pitted morningglory (Ipomoea lacunosa), purple nutsedge (Cyperus rotundus), common ragweed (Ambrosia elation), mustard (Brassica nigra), guineagrass (Panicum maximum), […] (Paspalum dilatatum), barnyardgrass (Echinochloa crus-galli), southern sandbur (Cenchrus echinatus), common sowthistle (Sonchus oleraceous), prickly […] spinosa), Italian ryegrass (Lolium multiflorum), common purslane (Portulaca oleracea), broadleaf signalgrass (Brachiaria platyphylla), common groundsel (Senecio vulgaris), common chickweed (Stellaria media), Virginia dayflower (Commelina virginica), annual bluegrass (Poa annua), naked crabgrass (Digitaria nuda), […] cochinchinensis), quackgrass (Elytrigia repens), Canada horseweed (Conyza canadensis), field bindweed (Convolvulus arvensis), […] (Bidens bipinnata), common mallow (Malva sylvestris), Russian thistle (Salsola kali), and sugarcane (Saccharum officinarum) were planted and treated preemergence with test chemicals formulated in a non-phytotoxic solvent mixture which included a surfactant. At a different time, sugarcane was treated with postemergence applications of some of the test chemicals formulated in the same manner. Plants were approximately 3- to 4-leaf stage for the postemergence treatments. Treated plants and controls were maintained in a greenhouse for 14 to 21 days, after which time all species were compared to controls and visually evaluated. […] A dash (-) response means no test result.

goosegrass = experiment: Test F preemergence test; type: in vivo, Eleusine indica; conditions: scale 0 to 100
Excerpt: as §1

woolly cupgrass = experiment: Test C pre-/postemergence test; type: in vivo, Eriochloa villosa; conditions: for Plant response rating, Cupgrass, Woolly: scale 0 to 100, 0 no effect, 100 complete control
Method in brief: (§2)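 Test chemicals were formulated with surfactant in a non-phytotoxic solvent and sprayed both on freshly planted seeds (preemergence) and on 1- to 4-leaf plants of 2–18 cm (postemergence). Flooded-paddy pots received compound directly into 3 cm of standing water, maintained for the test.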

kochia = experiment: Test F preemergence test; type: in vivo, Kochia scoparia; conditions: scale 0 to 100
Excerpt: as §1

Italian ryegrass = experiment: Test F preemergence test; type: in vivo, Lolium multiflorum; conditions: scale 0 to 100
Excerpt: as §1

blackgrass = experiment: Test C pre-/postemergence test; type: in vivo, Alopecurus myosuroides; conditions: Postemergence; for Plant response rating, Blackgrass: scale 0 to 100, 0 no effect, 100 complete control
Method in brief: as §2

Surinam grass = experiment: Test F preemergence test; type: in vivo, Brachiaria decumbens; conditions: scale 0 to 100
Excerpt: as §1

purple nutsedge = experiment: Test F preemergence test; type: in vivo, Cyperus rotundus; conditions: scale 0 to 100
Excerpt: as §1

southern sandbur = experiment: Test F preemergence test; type: in vivo, Cenchrus echinatus; conditions: scale 0 to 100
Excerpt: as §1

barnyardgrass = experiment: Test F preemergence test; type: in vivo, Echinochloa crus-galli; conditions: scale 0 to 100
Excerpt: as §1

corn = experiment: Test C pre-/postemergence test; type: in vivo, Zea mays; conditions: for Plant response rating, Corn: scale 0 to 100, 0 no effect, 100 complete control
Method in brief: as §2

large crabgrass = experiment: Test F preemergence test; type: in vivo, Digitaria sanguinalis; conditions: scale 0 to 100
Excerpt: as §1

bermudagrass = experiment: Test F preemergence test; type: in vivo, Cynodon dactylon; conditions: scale 0 to 100
Excerpt: as §1

mustard = experiment: Test F preemergence test; type: in vivo, Brassica nigra; conditions: scale 0 to 100
Excerpt: as §1

broadleaf signalgrass = experiment: Test F preemergence test; type: in vivo, Brachiaria platyphylla; conditions: scale 0 to 100
Excerpt: as §1

[1] = 31 g ai/ha, Preemergence, scale 0 to 100
[2] = 62 g ai/ha, preemergence, scale 0 (no effect) to 100 (complete control)
[3] = preemergence, 125 g ai/ha, scale 0 (no effect) to 100 (complete control)

Cn1nc(C(F)(F)F)c(C[S+]([O-])c2ccc(Cl)c[n+]2[O-])c1OC(F)F (centres unmarked) [Compound 6]
95: Goosegrass plant response rating (goosegrass; 62 g ai/ha, Preemergence) | Crabgrass, Large plant response rating (large crabgrass; 62 g ai/ha, Preemergence) | Signalgrass plant response rating (broadleaf signalgrass; 62 g ai/ha, Preemergence)
75: Quackgrass plant response rating (quackgrass; 62 g ai/ha, Preemergence) | Plant response rating, Goosegrass (goosegrass; Preemergence, 16 g ai/ha) | Plant response rating, Ryegrass, Italian (Italian ryegrass; Preemergence, 31 g ai/ha) | Purple Nutsedge plant response rating (purple nutsedge; 62 g ai/ha, Preemergence) | Plant response rating, Sandbur (southern sandbur; 16 g ai/ha, preemergence)
20: Plant response rating, Goosegrass (goosegrass; 8 g ai/ha, preemergence) | Plant response rating, Purple Nutsedge (purple nutsedge; Preemergence, 16 g ai/ha) | Plant response rating, Purple Nutsedge (purple nutsedge; Preemergence, 31 g ai/ha)
50: Plant response rating, Cupgrass, Woolly (woolly cupgrass; Postemergence, 125 g ai/ha) | Plant response rating, Blackgrass (blackgrass; 62 g ai/ha) | Plant response rating, Blackgrass (blackgrass; 125 g ai/ha) | Plant response rating, Blackgrass (blackgrass; 250 g ai/ha) | Plant response rating, Signalgrass (broadleaf signalgrass; 16 g ai/ha, preemergence)
85: Ryegrass, Italian plant response rating (Italian ryegrass; 62 g ai/ha, Preemergence)
60: Plant response rating, Quackgrass (quackgrass; Preemergence, 16 g ai/ha) | Kochia plant response rating (kochia; 62 g ai/ha, Preemergence) | Plant response rating, Surinam Grass (Surinam grass; 16 g ai/ha, preemergence) | Corn plant response rating (corn; [2]) | Corn plant response rating (corn; [3])
100: Cupgrass, Woolly plant response rating (woolly cupgrass; [2]) | Plant response rating (0 to 100), Cupgrass, Woolly (woolly cupgrass; Preemergence, 250 g ai/ha) | Cupgrass, Woolly plant response rating (woolly cupgrass; [3]) | Sandbur plant response rating (southern sandbur; 62 g ai/ha, Preemergence) | Plant response rating, Sandbur (southern sandbur; Preemergence, 31 g ai/ha) | Black Mustard plant response rating (mustard; 62 g ai/ha, Preemergence) | Plant response rating, Black Mustard (mustard; Preemergence, 31 g ai/ha)
0: Plant response rating, Quackgrass (quackgrass; 8 g ai/ha, preemergence) | Plant response rating (0 to 100), Cupgrass, Woolly (woolly cupgrass; Postemergence, 31 g ai/ha) | Plant response rating, Cupgrass, Woolly (woolly cupgrass; Postemergence, 62 g ai/ha) | Plant response rating, Kochia (kochia; 8 g ai/ha, preemergence) | Plant response rating, Kochia (kochia; Preemergence, 16 g ai/ha) | Plant response rating, Kochia (kochia; Preemergence, 31 g ai/ha) | Plant response rating, Ryegrass, Italian (Italian ryegrass; 8 g ai/ha, preemergence) | Plant response rating (0 to 100), Blackgrass (blackgrass; 31 g ai/ha) | Plant response rating, Surinam Grass (Surinam grass; 8 g ai/ha, preemergence) | Plant response rating, Purple Nutsedge (purple nutsedge; 8 g ai/ha, preemergence) | Plant response rating, Sandbur (southern sandbur; 8 g ai/ha, preemergence) | Plant response rating, Barnyardgrass (barnyardgrass; 8 g ai/ha, preemergence) | Corn plant response rating (corn; [1]) | Plant response rating (0 to 100), Corn (corn; Postemergence, 31 g ai/ha) | Plant response rating, Corn (corn; Postemergence, 62 g ai/ha) | Plant response rating, Corn (corn; Postemergence, 125 g ai/ha) | Plant response rating, Corn (corn; Postemergence, 250 g ai/ha) | Plant response rating, Crabgrass, Large (large crabgrass; 8 g ai/ha, preemergence) | Plant response rating, Bermudagrass (bermudagrass; 8 g ai/ha, preemergence) | Plant response rating, Black Mustard (mustard; 8 g ai/ha, preemergence) | Plant response rating, Black Mustard (mustard; Preemergence, 16 g ai/ha) | Plant response rating, Signalgrass (broadleaf signalgrass; 8 g ai/ha, preemergence)
90: Plant response rating, Goosegrass (goosegrass; Preemergence, 31 g ai/ha) | Cupgrass, Woolly plant response rating (woolly cupgrass; [1]) | Surinam Grass plant response rating (Surinam grass; 62 g ai/ha, Preemergence) | Barnyardgrass plant response rating (barnyardgrass; 62 g ai/ha, Preemergence)
65: Plant response rating, Quackgrass (quackgrass; Preemergence, 31 g ai/ha) | Plant response rating, Bermudagrass (bermudagrass; Preemergence, 31 g ai/ha) | Plant response rating, Signalgrass (broadleaf signalgrass; Preemergence, 31 g ai/ha)
15: Plant response rating, Crabgrass, Large (large crabgrass; Preemergence, 16 g ai/ha) | Plant response rating, Bermudagrass (bermudagrass; Preemergence, 16 g ai/ha)
80: Plant response rating, Barnyardgrass (barnyardgrass; Preemergence, 31 g ai/ha) | Bermudagrass plant response rating (bermudagrass; 62 g ai/ha, Preemergence)
55: Plant response rating, Cupgrass, Woolly (woolly cupgrass; Postemergence, 250 g ai/ha)
40: Plant response rating, Ryegrass, Italian (Italian ryegrass; Preemergence, 16 g ai/ha)
98: Plant response rating (0 to 100), Corn (corn; Preemergence, 250 g ai/ha)
70: Plant response rating, Surinam Grass (Surinam grass; Preemergence, 31 g ai/ha) | Plant response rating, Barnyardgrass (barnyardgrass; Preemergence, 16 g ai/ha) | Plant response rating, Crabgrass, Large (large crabgrass; Preemergence, 31 g ai/ha)
